Measured values from patent publication US20170021056A1, “PEPTIDE AMPHIPHILE BIOMATERIALS FOR NERVE REPAIR” (Northwestern University, priority 2015, published 2017).
The star is where a group is joined. Palmitoyl = CCCCCCCCCCCCCCCC(=O)*

Columns and labels:
[1] = tested on: Schwann cells (cell line RT4-D6P2T); experiment: Immunocytochemistry of actin and vinculin (focal adhesion protein) of Schwann cells in gels; type: cell-based, rat; conditions: 48 h culture
Description: (§1) Cells were purchased from ATCC (cell line RT4-D6P2T) and cultured in Dulbecco's Modified Eagle's Medium (DMEM) with 10% fetal bovine serum (FBS). Cells were cultured to confluence, treated with 0.25% trypsin, centrifuged, and resuspended in PBS for a final concentration of 3500 cells/ml for WST-1 proliferation assays and 10,000 cells/ml for immunocytochemistry (ICC).
(§2) Following completion of the slow cooling, each of the PA solutions was mixed with Schwann cell suspension in a 4:1 ratio. A final cell density of 3500 cells/ml was used for the WST-1 proliferation assays and 10,000 cells/ml for immunocytochemistry studies.
(§3) A […] volume of gelling solution consisting of 20 mM CaCl2, 150 mM NaCl, and 3 mM KCl was pipetted onto a glass slide to form a thin film. The PA-Schwann cell suspensions were then pipetted in […] aliquots onto the thin film, instantly forming a string-like gel, with cells encapsulated within. These cell-embedded gels were maintained free floating in DMEM with 10% FBS in culture plates and incubated at 37° C. Medium was changed every 72 h.
(§4) Volumetric ratios of 1 ml HEPES, 10 ml 10XPBS, 87 ml Collagen 10 mg/mL, and 2 ml Schwann cell PBS suspension were combined and mixed gently. Final cell density of 3500 cells/ml was used for the WST-1 proliferation assays and 10,000 cells/ml, for immunocytochemistry studies. The mixture was then pipetted into a culture well (either a 96-well plate or 2-welled microscopy slides), and after 1 h of curing and solidification at 37° C., medium was added gently to the wells and changed every 3 days.
PA-cell gels along with collagen-cell gels were fabricated through the aforementioned methods at a final cell density of 10,000 cells/ml. […] Specimens were then viewed with confocal microscopy (Confocal SP1 MP-Inverted, Leica Microsystems Inc., Buffalo Grove, Ill.) using oil magnification, and images were recorded.

[2] = tested on: Schwann cells (cell line RT4-D6P2T); experiment: WST-1 proliferation assay of Schwann cells in PA or collagen gels; type: cell-based, rat; conditions: for Schwann cell proliferation compared to backbone-PA gel: by 7 days of culture; for Schwann cell proliferation (viability measurements) compared to backbone-PA gel: day 1 of culture
Description: as §1
In order to synthesize the backbone-PA (consisting of only palmitoyl-VVAAEENH2) (SEQ ID NO: 3), the molecule was dissolved in aqueous 150 mM NaCl, 3 mM KCl, and NaOH solution to obtain a final 1 wt % solution at a pH between 7.2 and 7.4. In order to fabricate mixtures containing epitope-bearing PAs IKVAV (SEQ ID NO: 2) and RGDS (SEQ ID NO: 1) (consisting of palmitoyl-VVAAEE-NH2(SEQ ID NO: 3) with appended peptides, either RGDS (Arg-Gly-Asp-Ser) (SEQ ID NO: 1) or IKVAV (Ile-Lys-Val-Ala-Val) (SEQ ID NO: 2)), the backbone-PA was dissolved in aqueous 150 mM NaCl, 3 mM KCl, and NaOH solution to obtain a 1.33 wt % solution at a pH between 7.2 and 7.4. The epitope-containing PA was then dissolved with the same solution to obtain a 1 wt % solution at a pH between 7.2 and 7.4. The 1.33 wt % PA solution was then mixed in a 3:1 ratio with the 1% bioactive epitope solution creating a final bioactive PA solution of 1 wt % PA and 0.25 wt % bioactive epitope. The three resulting solutions (backbone-PA, RGDS-PA (SEQ ID NO: 1), and IKVAV-PA (SEQ ID NO: 2)) were then heated to 80° C. for 30 min in a water bath and left in the bath for slowcooling to 37° C. overnight (refs. 10,11; herein incorporated by reference in their entireties).
as §2, §3, §4
To evaluate the viability of cells within the gels, WST-1 reagent (Roche Applied Science, Indianapolis, Ind., USA) was used for each PA-cell and collagen gelecell complex. WST-1 assay has been widely used to measure cell proliferation. Aligned PA-cell gels along with collagen-cell gels were fabricated through the aforementioned methods at a final cell density of 3500 cells/ml. Gels were then cultured in 96-well plates for various time periods (days 1, 7, 14, and 21). Following each time point, gels were incubated for 90 min in medium containing 10% WST-1 assay reagent. Following incubation, […] of the conditioned medium were then transferred to a 96-well reading plate, and absorption values were read in a spectrophotometer at 450 nm. Measurements were repeated in sets of four.

IKVAV-PA: palmitoyl-VVAAEE-NH2 with appended IKVAV (Ile-Lys-Val-Ala-Val), mixed with backbone-PA: 1 wt % PA and 0.25 wt % bioactive epitope
actin appearance, RGDS-PA compared with IKVAV-PA gels [1]: no significant difference
Schwann cell proliferation compared to backbone-PA gel [2]: significantly higher
Schwann cell proliferation (viability measurements) compared to backbone-PA gel [2]: proliferated more rapidly
day at which Schwann cell growth was maximal ([2]; no significant expansion or contraction at day 21): 14 days

RGDS-PA: palmitoyl-VVAAEE-NH2 with appended RGDS (Arg-Gly-Asp-Ser), mixed with backbone-PA: 1 wt % PA and 0.25 wt % bioactive epitope
actin appearance, RGDS-PA compared with IKVAV-PA gels [1]: no significant difference
Schwann cell proliferation compared to backbone-PA gel [2]: significantly higher
Schwann cell proliferation (viability measurements) compared to backbone-PA gel [2]: proliferated more rapidly
time over which Schwann cell proliferation was statistically increased vs. backbone-PA ([2]; p<0.05, ANOVA and Tukey-Kramer): ≤ 21 days
Schwann cell proliferation, rank among all groups ([2]; through 21 days of culture): highest among all groups

palmitoyl-VVAAEENH2 (Palmitoyl-VVAAEE-NH2) [backbone-PA]
spatial arrangement of cytoskeletal actin of Schwann cells (actin stain) [1]: marked linear arrangement
Schwann cell proliferation with time in gel ([2]; days 1, 7, 14, 21): increasing proliferation with time
